Experimental data: patent US20250228824A1, “COMPOSITIONS AND METHODS FOR INHIBITION OF ITO AS TREATMENT FOR THE J WAVE SYNDROMES AND HYPOTHERMIA” (Lankenau Institute for Medical Research, priority 2021, published 2025)

Experiments:
[1] = test system: coronary-perfused canine right (RV) and left (LV) ventricular wedge models of JWS; test: Coronary-perfused ventricular wedge models of the J wave syndromes (NS5806 alone or with verapamil); parameters: QT interval / T wave amplitude / Epi (APD50) / Epi (APD90): unit not given here
Description: Ten hearts from purpose-bred adult male mongrel dogs (20-22 kg) were acquired from Covance (Denver, PA) and another 10 hearts from purpose-bred adult male Beagle dogs (10-16 kg) were obtained from Envigo (Denver, PA). Dogs were sedated with ketamine (10 mg/kg, IM) and xylazine 2 (mg/kg, IM). Prior to euthanasia (Euthasol solution: pentobarbital sodium and phenytoin sodium; 0.22 ml/kg, IV), and heparin (human pharmaceutical grade, 1,000 U/kg, IV) were administered 3-4 min before isolation of the hearts via a left thoracotomy. Retrograde aortic perfusion of the hearts with ice-cold cardioplegic solution (modified K-H solution; 16 mM KCl) was immediately performed to rinse the coronary vasculature of blood. The hearts were then placed in a sealed container containing ice-cold cardioplegic solution and transported to our institution via private courier in an insulated package filled with icepacks.
Transmural wedges were dissected from the base of the RV and LV. During the cannulation procedure, preparations were initially arterially perfused with cardioplegic solution. Next, the wedge preparations were placed in a tissue bath and perfused with a modified Krebs-Henseleit solution (K—H) bubbled with 95% O2/5% CO2 warmed to 37° C. The composition of K—H was (in mM): 118 NaCl, 4 KCl, 2 CaCl2, 1.2 MgSO4, 24 NaHCO3, 1.2 NaH2PO4, 2 Na Pyruvate and 10 D-Glucose. The perfusate was delivered at a constant pressure (45-50 mmHg). A transmural pseudo-ECG (ECG) was recorded using two Ag/AgCl half cells placed at ˜1 cm from the Epi (+) and Endo (−) surfaces along the same axis as the transmembrane action potential (AP) recordings. APs were simultaneously recorded from the immediate sub-Epi and M cell region (˜2-3 mm from the Endo surface) using floating glass microelectrodes. Pacing was applied to the Endo surface using bipolar silver electrodes insulated except at the tips (Basic Cycle Lengths [BCLs]: 500-2,000 ms). A detailed description of the arterially-perfused ventricular wedge preparation has been previously published.^5 ECG and AP signals were digitized and analyzed using Spike 2 for Windows (Cambridge Electronic Design, Cambridge, UK).
We used the Ito-agonist NS5806 (5-10 μM) alone or with the calcium-channel blocker verapamil (2.5 μM) to pharmacologically mimic the effects of the ion channel genetic defects underlying ERS and BrS. These provocative agents were added to the coronary perfusate in increasing concentrations until the characteristic ECG phenotypes were unmasked, including phase 2 reentry (P2R), closely coupled premature beats (CCPBs) and/or pVT/VF. AR-787 was added to the perfusate to test its ability to suppress or prevent arrhythmogenesis.

[2] = high doses / high plasma levels; cited from earlier work
[3] = NS5806 5-10 μM, 3 LV wedges, BCL 800 msec

SMILES | QT interval ([1]; AR-787 1, 10 or 50 μM, NS5806 5-10 μM, five wedges) | effect on phase 1 magnitude, AP notch and J wave ([1]; NS5806 5-10 μM in coronary perfusate) | Epi (APD50) [1, 3] | Epi (APD90) [1, 3] | J wave amplitude [1, 3] | M (APD50) [1, 3] | M (APD90) [1, 3] | Ph1 mag (% Ph0) [1, 3] [% Ph0] | QT interval [1, 3] | T wave amplitude [1, 3] | patients developing serious GI side effects [2]
O=C(Nc1cc(C(F)(F)F)cc(C(F)(F)F)c1)Nc1c(Br)cc(Br)cc1-c1nn[nH]n1 [NS5806, reference compound] | unaffected | increased the magnitude of phase 1 | 181.8 ± 10.4 | 215.6 ± 5.3 | 31.3 ± 4.6 | 179.5 ± 5.9 | 228.4 ± 7.7 | 40.2 ± 6.5 | 261.2 ± 4.5 | 17.8 ± 9.6 | 
C=C[C@H]1C[N@@]2CC[C@H]1C[C@@H]2[C@@H](O)c1ccnc2ccc(OC)cc12 [quinidine] |  |  |  |  |  |  |  |  |  |  | approximately 50%
